The values that follow are results of earlier work, collected in patent publication US20130338198A1, “COMPOSITION FOR TREATING DERMATITIS AND ICHTHYOSIS, AND METHOD FOR TREATING DERMATITIS AND ICHTHYOSIS” (Skinvisible Pharmaceuticals, Inc., priority 2010, published 2013).

The conditions of the data set: in vivo.

With “Poly(vinylpyrrolidone/1-eicosene) [PVPE]”, the dermal toxicity entry is on record as “no demonstrable dermal toxicity”. On to “Poly(vinylpyrrolidone/1-hexadecene) [PVPH]”, for which the dermal toxicity result is recorded as “no demonstrable dermal toxicity”.
